US20240252677A1, “ONE-COMPONENT DELIVERY SYSTEM FOR NUCLEIC ACIDS” (The Trustees of the University of Pennsylvania, priority 2021, published 2024)

Key:
[1] = pKa measurements of individual IAJD molecules by titration; type: physicochemical; details: ethanol saturated with NaCl, titrated with 0.1 M aqueous HCl, titration
Protocol: pKa measurements of individual IAJD Molecules was performed as follows. IAJD Molecules were first dissolved in ethanol (Sat. with NaCl) at a concentration of 1.5 mg/mL and the solution volume was 3 mL.
Then 0.1 M HCl solution was added to the above ethanol solution with an increment of 7.5 μL. The resulting pH after each addition of HCl solution was measured by an Thermo Scientific Orion Star A121 meter with Thermo Scientific Orion 8220BNWP pH probe. pKa was determined using the half equivalence point titration.

[2] = Stability of DNPs by DLS after storage at 5° C.; type: physicochemical; parameters: key to Original size distribution type (DLS curve) / Size distribution type (DLS curve): U: DLS curve showed unimodal size distribution; B: DLS curve showed bimodal size distribution; M: DLS curve showed multimodal size distribution; details: for pH Sample: DNPs: IAJD 4.0 mg/mL + Luc-mRNA 0.1 mg/mL, injection in acetate buffer pH 4.00; for PDI / Size (d, nm) / Original size distribution type (DLS curve): IAJD 4.0 mg/mL + Luc-mRNA 0.1 mg/mL; for PDI / Size (d, nm): acetate buffer; for Original size distribution type (DLS curve): before storage, acetate buffer pH 4.00
Protocol: The stability of the DNPs as assayed by DLS. All the samples are prepared in acetate buffer. The stabilities of the constructs were ranked: Excellent (in bold)—the original sizes and distribution remains almost the same after storage; Good—the original relatively big sizes became smaller or broad size distribution became narrower; Not stable—the original relatively big sizes or broad size distribution remained almost the similar level, or the original relatively small sizes became bigger or narrow size distribution became broader.

[3] = test system: lung; test: In vivo mRNA delivery, IVIS imaging of organs: lung; parameters: species or system mice; key to Organs with luminescence: lung: strong: Strong meant the luminescence intensity in that organ was relatively high, compared to other organs; weak: Weak meant the luminescence intensity in that organ was relatively low, compared to other organs; details: mice; for Organs with luminescence: lung: Table 17, IVIS, 4-6 h after injection, intensity relative to other organs
Protocol: (§1) The exposure time was 1 min.
(§2) Tissue luminescence signal was measured on the IVIS imaging system using an exposure time of 60 seconds using medium binning (binning=8) to ensure that the signal obtained was within operative detection range. […] Bioluminescence imaging was performed as described above.
(§3) Tissue luminescence signal was measured on the IVIS imaging system using a certain exposure time (60, 30 or 15 seconds) and medium binning (binning=8) to ensure that the signal obtained was within operative detection range.

[4] = test system: HEK293T cells; test: In vitro Luc-mRNA transfection, luciferase luminescence expression in HEK293T cells; type: cell-based, human; parameters: unit not given here
Protocol: In Vitro Transfection Activity of DNPs in Human Embrionic Kidney (HEK) 293T Cells: HEK293T cells were seeded into 96-well plates (20,000 cells/well/200 μL) and cultured for 24 h at 37° C. in 5% CO2 complete cell culture media. Screening experiments were performed with nonoptimized DNPs containing naked nucleoside-modified mRNA (Karikó, et al., Immunity 2005, 23, 165-175; Pardi, et al., Methods Mol. Biol. 2013, 969, 29-42), of molar mass 664,341 encoding firefly luciferase (mRNA-Luc). A constant concentration of mRNA-Luc of 125 ng/well was used. The transIT (TransIT-mRNA transfection Kit from Mirus Bio) and MC3-based LNPs (MC3: DLin-MC3-DMA, which is the FDA approved LNP for mRNA delivery) were used as positive controls for cell transfection at a concentration of mRNA-Luc of 125 ng/well, identical to that of the tested DNPs. Subsequently cells were cultured for 24 h, the medium was aspirated under reduced pressure by a glass pipette and cells were lysed with 30 μL/well of cell culture lysis reagent (Promega). The luminescence intensity corresponding to the luciferase protein expressed was characterized and analyzed.
In vitro mRNA Delivery: Human embryonic kidney (HEK) 293T cells (American Type Culture Collection) were cultured in Dulbecco's modified Eagle's medium (DMEM) supplemented with 10% inactivated fetal bovine serum (FBS) (Gemini Bio-Products), 2 mM L-glutamine and 100 U/mL penicillin/streptomycin (Life Technologies) (complete medium). For in vitro screening experiments, HEK293T cells were seeded into 96-well plates (20,000 cells/well/200 μL) and cultured for 24 h in at 37° C. and 5% CO2 in complete media. Cell were transfected with IAJDs with encapsulated naked nucleoside-modified mRNA encoding firefly luciferase (mRNA-Luc) with fixed concentration of mRNA-Luc, 125 ng per well. The transIT (TransIT®-mRNA Transfection Kit, Mirus Bio) was used as a positive control for cell transfection, accordingly per manufacturer protocol and added to cells at the concentration of mRNA-Luc, 125 ng per well, the same as for tested particles. Cells were further cultured for 24 h, then medium was aspirated, and cells were lysed with 30 μL/well of cell culture lysis reagent (Promega). For the characterization of luminescence intensity, 2.5 μL of the lysed cells was mixed with 10 μL of luciferase assay substrate and luminescence was analyzed using a MiniLumat LB 9506 luminometer (Berthold/EG&G; Wallac).
Luminescence characterization for in vitro transfection experiments was performed by determining the luminescence intensity for in vitro Luc-mRNA transfection experiments using a MiniLumat LB 9506 luminometer (Berthold/EG&G; Wallac).
For in vitro Luc-mRNA transfection screening experiments, human embryonic kidney 293 cells (HEK 293) were seeded into 96-well plates (20,000 cells/well/200 μL) and cultured for 18-20 hours at 37° C., 5% CO2 in complete Dulbecco's modified Eagle's medium (DMEM) supplemented with 2 mM L-glutamine (Life Technologies), 100 U/mL penicillin/streptomycin (Invitrogen) and 10% fetal bovine serum (FBS, Gemini Bio-Products). Cells were transfected with DNPs with encapsulated naked nucleoside-modified mRNA encoding firefly luciferase (Luc-mRNA) at constant concentration of Luc-mRNA, 125 ng per well. Luc-mRNA complexed with TransIT (TransIT®-mRNA Transfection Kit, Mirus Bio) or encapsulated in FDA approved MC3-based LNPs were used as positive controls for cell transfection, at the concentration of Luc-mRNA of 125 ng per well, the same as for tested DNPs. After transfection cells were further cultured at 37° C., 5% CO2 for 18-20 hours, then medium was aspirated and cells were lysed with luciferase cell culture lysis reagent (30 μL/well) (Promega, Madison, WI). […]

[5] = test system: spleen; test: In vivo mRNA delivery, IVIS imaging of organs: spleen; parameters: species or system mice; details: Table 14; imaging 5 h after injection
Protocol: as §1, §2, §3

[6] = Table 16, HEK 293T cells, 125 ng/well, n=3
[7] = Table 15, individual IAJD molecule
[8] = HEK293T cells, Luc-mRNA 125 ng/well, n=3
[9] = storage time 2 days, CIAJD 4.0 mg/mL, CLuc-mRNA 0.1 mg/mL, acetate buffer pH 4.0
[10] = Acetate buffer 10 mM pH 4.0, CIAJD 4 mg/mL, CLuc-mRNA 0.05 mg/mL, HEK293T, 125 ng/well
[11] = Citrate buffer 10 mM pH 3.0, CIAJD 4 mg/mL, CLuc-mRNA 0.05 mg/mL, HEK293T, 125 ng/well

Compound	pKa ([1]; individual IAJD molecules)	pH Sample [2]	Size distribution type (DLS curve) ([2]; after 19 days at 5° C.)	PDI ([2]; after 19 days at 5° C.)	Size (d, nm) ([2]; after 19 days at 5° C.) [nm]	Original size distribution type (DLS curve) [2]	Organs with luminescence: lung [3]	Luminescence [4, 6]	further results
CCCCCCCCCCCCCCCOc1cc(COC(=O)c2cc(OCCOCCOCCCC(=O)CCCN3CCCCC3)c(OCCOCCOCCOCc3ccccc3)c(OCCOCCOCCOC(=O)CCCN3CCCCC3)c2)cc(OCCCCCCCCCCC)c1 [IAJD 157]	7.42	4.84	(U)	0.255	71	(U)	Lung (strong)	47	
CCCCCCCCCCCCOc1cc(COC(=O)c2cc(OCCOCCOCCCC(=O)CCCN3CCCCC3)c(OCCOCCOCCOCc3ccccc3)c(OCCOCCOCCOC(=O)CCCN3CCCCC3)c2)cc(OCCCCCCCCCCCC)c1 [IAJD 110]	7.64	4.91				(U)	Lung (strong)	47	Size distribution type (DLS curve) ([2]; after 75 days at 5° C.): (U); PDI ([2]; after 75 days at 5° C.): 0.222; Size (d, nm) ([2]; after 75 days at 5° C.): 103 nm; activity in lung (in words) ([3]; Luc-mRNA DNPs): very high activity to lung
CCCCCCCCCCCCCCCCCOc1cc(CNC(=O)c2cc(OCCOCCOCCOC(=O)CCCN3CCCCC3)c(OCCCOCOCCOCc3ccccc3)c(OCCOCCOCCOC(=O)CCCN3CCCCC3)c2)cc(OCCCCCCCCCCCCCCCCC)c1 [IAJD 159]	7.4	4.72				(U)	Lung (strong)	24,055	Size distribution type (DLS curve) ([2]; after 11 days at 5° C.): (U); PDI ([2]; after 11 days at 5° C.): 0.220; Size (d, nm) ([2]; after 11 days at 5° C.): 93 nm
CCCCCCCCCCCCOc1cc(COC(=O)CCCN2CCCCC2)cc(OCCCCCCCCCCCC)c1 [IAJD 65, 3,5-Bis(dodecyloxy)benzyl 4-(piperidin-1-yl)butanoate]									pKa [1, 7]: 7.4; Luminescence [4, 8]: 18
CCCCCCCCCCCCCCOc1cc(COC(=O)c2cc(OCCOCCOCCCC(=O)CCCN3CCCCC3)c(OCCOCCOCCOCc3ccccc3)c(OCCOCCOCCOC(=O)CCCN3CCCCC3)c2)cc(OCCCCCCCCCCC)c1 [IAJD 156]	7.43	4.82	(U)	0.242	78	(U)	Lung (strong)	59	
CCCCCCCCCCCCCCCCCOc1cc(COC(=O)c2cc(OCCOCCOCCCC(=O)CCCN3CCCCC3)c(OCCOCCOCCOCc3ccccc3)c(OCCOCCOCCOC(=O)CCCN3CCCCC3)c2)cc(OCCCCCCCCCCC)c1 [IAJD 158]	7.38	4.83	(U)	0.258	77	(U)	Lung (strong)	83	
CCCCCCCCCCCCOCC(COCCCCCCCCCCCC)(COCCCCCCCCCCCC)COC(=O)CCCN1CCN(C)CC1 [IAJD 82, 3-(Dodecyloxy)-2,2-bis((dodecyloxy)methyl)propyl 4-(4-methylpiperazin-1-yl)butanoate]									pKa [1, 7]: 6.18; Organs with luminescence: spleen (weak/strong) [5]: Spleen (strong); Luminescence [4, 8]: 17
Diheptyl 5,5′-((5-(((4-(4-methylpiperazin-1-yl)butanoyl)oxy)methyl)-1,3-phenylene)bis(oxy)) dipentanoate [IAJD 85]									PDI after storage [2, 9]: 0.271; Size (d, nm) after storage [2, 9]: 114 nm; Luminescence [4, 10]: 734; Luminescence ([4]; Acetate buffer 10 mM pH 4.0, CIAJD 4 mg/mL, CLuc-mRNA 0.10 mg/mL, HEK293T, 125 ng/well): 2,498; Luminescence [4, 11]: 1,176
3,5-Bis(dodecyloxy)benzyl 3-(4-methylpiperazin-1-yl)propanoate [IAJD 84]									Luminescence [4, 10]: 3,876; Luminescence ([4]; Acetate buffer 10 mM pH 5.2, CIAJD 4 mg/mL, CLuc-mRNA 0.10 mg/mL, HEK293T, 125 ng/well): 18,268; Luminescence [4, 11]: 819
